Consider three compounds from patent US20050096360A1, “Inhibitors of semicarbazide-sensitive amine oxidase (SSAO) and VAP-1 mediated adhesion useful for treatment of diseases” (priority 2003, published 2005).

The target in experiment [1] is T1, recombinant human MAO-A (Homo sapiens, UniProt P21397).
T1 construct: purchased BD Biosciences (MA, USA)
T1 sequence (P21397 1-527): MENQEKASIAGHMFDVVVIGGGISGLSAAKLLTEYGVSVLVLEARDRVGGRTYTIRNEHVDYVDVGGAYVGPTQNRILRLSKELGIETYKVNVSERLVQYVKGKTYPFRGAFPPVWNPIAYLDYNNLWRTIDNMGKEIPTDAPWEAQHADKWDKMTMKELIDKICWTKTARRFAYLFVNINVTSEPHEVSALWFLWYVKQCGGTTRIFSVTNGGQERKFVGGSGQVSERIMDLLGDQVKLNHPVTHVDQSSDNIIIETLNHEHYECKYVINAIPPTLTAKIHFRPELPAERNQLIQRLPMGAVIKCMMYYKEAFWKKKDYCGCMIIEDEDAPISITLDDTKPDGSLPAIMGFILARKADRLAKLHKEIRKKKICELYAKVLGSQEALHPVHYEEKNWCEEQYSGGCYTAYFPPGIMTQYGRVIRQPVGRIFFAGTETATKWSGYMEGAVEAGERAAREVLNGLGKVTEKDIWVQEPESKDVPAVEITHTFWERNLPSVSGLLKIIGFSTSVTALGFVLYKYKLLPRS
The experiment is described as follows: Inhibition of MAO-A activity, colorimetric. Type of experiment: biochemical. Conditions: for Specificity for SSAO vs. MAO-A: ratio IC50 MAO-A to IC50 SSAO. The method, then:
The specificity of the different SSAO inhibitors was tested by determining their ability to inhibit MAO-A and MAO-B activities in vitro. Recombinant human MAO-A and human MAO-B enzymes were obtained from BD Biosciences (MA, USA). […] A pre-determined amount of inhibitor diluted in 0.2 M potassium phosphate buffer, pH 7.6, was added to each well, if required. […] Controls lacked inhibitor. The following agents were then added to a final reaction volume of 200 μl in 0.2 M potassium phosphate buffer, pH 7.6: 0.04 mg/ml of MAO-A or 0.07 mg/ml MAO-B enzyme, 15 μl of 10 mM tyramine substrate (for MAO-A), or 15 μl 100 mM benzylamine substrate (for MAO-B), and 50 μl of freshly made chromogenic solution (as above). The plates were incubated for 60 min at 37° C. The increase in absorbance, reflecting MAO activity, was measured at 490 nm using microplate spectrophotometer (Power Wave 40, Bio-Tek Inst.). Inhibition was presented as percent inhibition compared to control after correcting for background absorbance and IC50 values calculated using GraphPad Prism software.

Experiment [2] concerns the target T2, SSAO (bovine plasma amine oxidase, PAO) (Bos taurus, UniProt Q29437).
T2 construct: Bovine plasma amine oxidase (PAO) was purchased from Worthington Biochemical; purchased Worthington Biochemical (Lakewood, N.J.)
T2 sequence (Q29437 17-762): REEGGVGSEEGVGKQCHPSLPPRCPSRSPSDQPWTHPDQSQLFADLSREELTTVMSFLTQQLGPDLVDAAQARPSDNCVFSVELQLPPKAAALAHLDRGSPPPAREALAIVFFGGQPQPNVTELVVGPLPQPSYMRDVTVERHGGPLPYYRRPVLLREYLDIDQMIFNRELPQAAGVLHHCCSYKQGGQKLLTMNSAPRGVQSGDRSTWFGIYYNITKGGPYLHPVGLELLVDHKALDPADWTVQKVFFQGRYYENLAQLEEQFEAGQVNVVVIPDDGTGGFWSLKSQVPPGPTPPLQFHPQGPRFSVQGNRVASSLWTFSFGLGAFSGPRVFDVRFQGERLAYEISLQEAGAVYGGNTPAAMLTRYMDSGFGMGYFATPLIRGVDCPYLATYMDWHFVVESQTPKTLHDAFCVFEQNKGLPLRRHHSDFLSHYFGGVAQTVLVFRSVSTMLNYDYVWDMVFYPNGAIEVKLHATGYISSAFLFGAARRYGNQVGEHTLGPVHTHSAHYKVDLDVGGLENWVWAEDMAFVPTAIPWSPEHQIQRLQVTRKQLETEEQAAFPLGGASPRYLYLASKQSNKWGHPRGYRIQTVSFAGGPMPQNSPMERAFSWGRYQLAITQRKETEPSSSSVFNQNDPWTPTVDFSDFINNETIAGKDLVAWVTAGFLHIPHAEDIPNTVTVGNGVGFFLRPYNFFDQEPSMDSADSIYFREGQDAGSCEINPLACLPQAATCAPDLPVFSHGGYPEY
The experiment is described as follows: In vitro inhibition of SSAO activity, coupled colorimetric method. Type of experiment: biochemical. The conditions noted are these: 30 min preincubation, benzylamine substrate; read-out: SSAO Inhibitory Activity IC50. The method, then:
SSAO activity was measured using the coupled colorimetric method essentially as described for monoamine oxidase and related enzymes (Holt A. et al. (1997) Anal. Biochem. 244:384). Bovine plasma amine oxidase (PAO) was purchased from Worthington Biochemical (Lakewood, N.J.) and used as a source of SSAO for activity measurements. The SSAO assay was performed in 96 well microtitre plates as follows. A pre-determined amount of inhibitor diluted in 0.2 M potassium phosphate buffer, pH 7.6, was added to each well, if required. The amount of inhibitor varied in each assay but was generally at a final concentration of between 10 nM and 10 μM. Controls lacked inhibitor. In order to study the effects of potential inhibitors 50 μl of inhibitor solution were preincubated for 30 min at 37° C. with 0.4 mU of PAO in an a total volume of 130 μl of 0.2 M potassium phosphate buffer pH 7.6. Assays were then started by addition of 20 μl 10 mM benzylamine substrate and incubated for 20 min at 37° C. The following reagents were then added to a final reaction volume of 200 μl, 50 μl of freshly made chromogenic solution containing […] vanillic acid (Sigma # V-2250), […] 4-aminoantipyrine (Sigma # A-4328) and 12 U/ml horseradish peroxidase (Sigma # P-8250) in order to cause a change of 0.5 OD A490 per hour. This was within the linear response range of the assay. The plates were incubated for 1 hr at 37° C. and the increase in absorbance, reflecting SSAO activity, was measured at 490 nm using a microplate spectrophotometer (Power Wave 40, Bio-Tek Inst.). Inhibition was presented as percent inhibition compared to control after correcting for background absorbance and IC50 values calculated using GraphPad Prism software.

[3] abbreviates: tyramine substrate, no pre-incubation, read-out: MAO-A Inhibitory Activity IC50.

SMILES strings stand for the structures. Where a name gives a salt, the structure may show the parent alone. Read-outs that look alike come from different tables or passages of the source.

In the case of `C=C(CNN)c1ccccc1` [Example 2, Hydrochloride], in experiment [1], the half-inhibitory concentration (IC50) (as a rule, the concentration that gives 50% inhibition) is 225 µM and the “Specificity for SSAO vs. MAO-A” value is 6,400. Further, the IC50 in experiment [2] was determined as 0.035 µM.

Take `C=C(CNN)c1ccc(F)cc1.Cl` [Example 8, N-[2-(4′-fluorophenyl)-allyl]-hydrazine Hydrochloride]: the “Specificity for SSAO vs. MAO-A” value in experiment [1] was 69. In addition, the IC50 was 2.2 µM in experiment [1] (setting [3]) and 0.032 µM in experiment [2].

For `Cl.NNC/C(=C/F)c1ccccc1` [Example 10, (E)-1-fluoro-2-phenyl-3-hydrazinopropene Hydrochloride], the “Specificity for SSAO vs. MAO-A” value in experiment [1] was 43. Also, the IC50 is 2.8 µM in experiment [1] (setting [3]) and 0.065 µM in experiment [2].
